For 9 compounds, Efficacy in % results are on record in patent US20130190375A1, “CARBOXAMIDES” (BAYER CROPSCIENCE AG, priority 2005, published 2013).

This test concerns Phakopsora pachyrhizi. Description: Soya bean rust control test/spray application. Format: in vivo, Phakopsora pachyrhizi on soya beans (cultivar: Enrei). As to conditions: sprayed one day before inoculation, evaluated 14 days after inoculation. The protocol: 5 parts by weight of carboxamide of the formula (I), 142.4 parts by weight of acetone and 7.5 parts by weight of emulsifier (polyoxyethylene alkylphenyl ether) are mixed and adjusted with water to the desired concentration.
Soya beans (cultivar: Enrei) were cultivated in plastic containers having a diameter of 7.5 cm. In each case 3 containers, 6 ml of the test substance (preparation as described above) were sprayed onto the seedlings which had reached the 2.3 leaf stage. One day after spraying, the leaves were inoculated with an urediniospore suspension (1×10^5 urediniospores/ml) of Phakopsora pachyrhizi. 14 days after the inoculation, the degree of infection for each container was evaluated and the efficacy was calculated. The phytotoxicity was also monitored.

Where [1] appears, read: active compound application rate 100 ppm.

The compound `CC(C)CC(C)c1ccccc1NC(=O)c1c(C(F)(F)F)nn(C)c1F` (stereo not shown) [(5), 3-(trifluoromethyl)-N-[2-(1,3-dimethylbutyl)phenyl]-5-fluoro-1-methyl-1H-pyrazole-4-carboxamide] registered an Efficacy in % under setting [1] of 80%.
Still for that read-out and setting: the figure for `Cc1nn(C)c(F)c1C(=O)Nc1ccccc1C(C)CC(C)C` (stereo not shown) [(2), N-[2-(1,3-dimethylbutyl)phenyl]-5-fluoro-1,3-dimethyl-1H-pyrazole-4-carboxamide] is 100%; for `Cc1nc(C(F)F)c(C(=O)Nc2ccsc2CC[Si](C)(C)C)s1` [(39), 4-(difluoromethyl)-2-methyl-N-{2-[2-(trimethylsilyl)ethyl]-3-thienyl}-1,3-thiazole-5-carboxamide] it is 80%; for `Cn1cc(C(=O)Nc2ccccc2-c2ccc(Cl)cc2)c(I)n1` [(33), N-(4′-chlorobiphenyl-2-yl)-3-iodo-1-methyl-1H-pyrazole-4-carboxamide] it is 50%.
Under setting [1], “3-(difluoromethyl)-N-[2-(1,3-dimethylbutyl)-4-fluorophenyl]-1-methyl-1H-pyrazole-4-carboxamide [(38)]” gave an Efficacy in % of 95%.
Regarding “N-[3′-fluoro-4′-(trifluoromethyl)biphenyl-2-yl]-3-iodo-1-methyl-1H-pyrazole-4-carboxamide [(37)]”, under setting [1], the Efficacy in % is listed as 50%.
`Cn1cc(C(=O)Nc2ccccc2CCC(C)(C)C)c(C(F)F)n1` [(35), 3-(difluoromethyl)-N-[2-(3,3-dimethylbutyl)phenyl]-1-methyl-1H-pyrazole-4-carboxamide] returned an Efficacy in % under setting [1] of 100%.
Consider `Cn1cc(C(=O)Nc2ccc(F)cc2-c2ccc(Cl)c(Cl)c2)c(C(F)F)n1` [(21), N-(3′,4′-dichloro-5-fluoro-1,1′-biphenyl-2-yl)-3-(difluoromethyl)-1-methyl-1H-pyrazole-4-carboxamide], for which the Efficacy in % under setting [1] is on record as 50% and the Efficacy in % (active compound application rate 250 ppm) came out at 90%.
In turn, `Cc1nn(C)c(F)c1C(=O)Nc1ccccc1CCC(C)(C)C` [(36), N-[2-(3,3-dimethylbutyl)phenyl]-5-fluoro-1,3-dimethyl-1H-pyrazole-4-carboxamide] displayed an Efficacy in % under setting [1] of 100%.
